# Legend:
# [1] = tested on: smoke inhalation injury followed by pneumonia; experiment: Pulmonary gas exchange (PaO2/FiO2 ratio, pulmonary shunt fraction) after smoke inhalation and pneumonia in sheep; format: in vivo; settings: nebulized every 4 hrs, 24-h study; vs saline-treated group (FIG. 1B)
# Procedure: Recombinantly produced ATIII was dissolved in saline (42 mg/ml). Female sheep (n=24) were used. After the 48 breaths of cotton smoke (<40° C.), P. aeruginosa (5×10^11 CFU) was instilled in the both lungs. All the animals were mechanically ventilated by 100% O2 (Tidal volume 15 ml/kg, 30 breaths/min, PEEP 5 cmH2O). […] No animals died during the study.
# (§1) The Animal Care and Use Committee of The University of Texas Medical Branch approved the experiments reported in this manuscript. All animals were handled within the guidelines established by the American Physiological Society and the National Institutes of Health. Twenty four female sheep were surgically prepared for study under halothane anesthesia as previously described (9). After measurement of baseline cardiovascular data, sheep received a combination injury of smoke inhalation and bacteria instillation as previously described (3).
# Briefly, P. aeruginosa (5×10^9/kg) was instilled intrabronchially after the cotton smoke exposure (4 sets of 12 breaths, <40° C.). […]
# (§2) The statistical software StatView 5.0 (SAS Institute, Cary, N.C.) was used to perform the analysis. Data are expressed as means±SEM. Repeated measured analysis of variance (ANOVA) or ANOVA with Tuckey's post hoc test was used to compare data among the groups. […]
# [2] = tested on: smoke inhalation injury followed by pneumonia; experiment: Lung histopathology scores 24 h after smoke and bacterial challenge; format: in vivo, sheep; settings: vs saline control
# Description: as §1
# (§3) Briefly, P. aeruginosa (5×10^9/kg) was instilled intrabronchially after the cotton smoke exposure (4 sets of 12 breaths, <40° C.). After the smoke inhalation and bacterial instillation, animals were randomly assigned for the two treatment groups, ATIII nebulization group (n=6), argatroban-nebulization group (n=8), and saline nebulization control group (n=10). All animals were mechanically ventilated with 100% oxygen throughout the 24-h study (Tidal volume 12-15 ml/kg, 30 breaths/min, PEEP 7.5 cmH2O). Tidal volume was adjusted to maintain PaCO2 normal. The Ringer's lactate solution was injected in sufficient volume to prevent the hematocrit from rising. Initially, 2 ml/kg/h of Ringer's lactate was infused, and we adjusted the in rate up to 10 ml/kg/h based on the hematocrit levels.
# (§4) Recombinant human antithrombin (rhAT) was dissolved in distilled water (250 mg/30 mL). Then, the ATIII solution was mixed with 60 mL saline and 15 mL of the mixed solution containing 41.7 mg ATIII was nebulized every 4 hrs. […] The control group received 15 ml saline nebulization as the same fashion. […]
# (§5) A lung slice from the right lower lobe was histologically scored by a pathologist who was unaware of animal grouping (5). […] Airway obstruction by cast formation was also evaluated as previously described (3).
# as §2
# [3] = tested on: smoke inhalation injury followed by pneumonia; experiment: Microscopic evaluation of airway obstruction by cast formation; format: in vivo, sheep
# Description: as §1, §3
# as §4, with “fashion. The solutions were nebulized by an ultrasonic nebulizer (Ultra-Neb99, DeVilbiss Co., Somerset, Pa.), which was connected to the tracheobronchial tree as shown previously (10). The size of the particles obtained by the nebulizer is reported less than 4 microns.” for “fashion.”
# as §5
# [4] = tested on: smoke inhalation injury followed by pneumonia; experiment: Plasma nitrate/nitrite (NOx) levels; format: in vivo, sheep; settings: over 24 h; vs saline-treated group (FIG. 6)
# Description: as §1
# as §3, with “Initially, 2 ml/kg/h of Ringer's lactate was infused, and we adjusted the in rate up to 10 ml/kg/h based on the hematocrit levels.” left out
# The concentration of NOx (total amount of nitric oxide metabolites) in plasma was measured with a chemiluminescent NO analyser (Antek, model 7020) as previously described (11).
# P. aeruginosa = experiment: Arterial blood culture for bacteremia; format: in vivo, sheep; settings: during the 24 h study; no statistical difference from saline-treated group
# Description: as §1
# as §3, with “levels. […]” for “levels.”
# [5] = Blood counts (WBC, platelets) after injury; format: in vivo, sheep
# Description: as §1, §3
# Recombinant human antithrombin (rhAT) was dissolved in distilled water (250 mg/30 mL). Then, the ATIII solution was mixed with 60 mL saline and 15 mL of the mixed solution containing 41.7 mg ATIII was nebulized every 4 hrs. […] The control group received 15 ml saline nebulization as the same fashion. The solutions were nebulized by an ultrasonic nebulizer (Ultra-Neb99, DeVilbiss Co., Somerset, Pa.), which was connected to the tracheobronchial tree as shown previously (10). The size of the particles obtained by the nebulizer is reported less than 4 microns. The nebulization was started one hour after the insult and every 4 hrs thereafter.
# Arterial blood was cultured to test the bacteremia (Septi-check, Becton Dickinson, Sparks, Md.). Heparinized blood samples were carefully withdrawn from the femoral artery catheter at baseline and at 3, 6, 12, and 24 hrs.
# [6] = 24 h, vs saline treated group (FIG. 4)
smiles,measurement,setting,value
CC1CNc2c(cccc2S(=O)(=O)N[C@@H](CCCNC(=N)N)C(=O)N2CC[C@@H](C)C[C@@H]2C(=O)O)C1 (stereo partly shown) [Argatroban],increase in pulmonary shunt fraction after the insult,[1],significantly less
same,hemorrhage score,[2],not higher but less
same,"individual histology scores in congestion, edema, inflammation, and hemorrhage (scale 0-4)",[2],almost the same scores as saline control
same,total histology score (maximum 16),[2],did not attenuate
same,airway obstruction in bronchi levels,[3]; [6],inhibited the obstruction significantly
same,airway obstruction in bronchiole levels,[3]; [6],inhibited the obstruction significantly
same,"prevention of cast formation (airway obstruction), comparison of the two agents",[3]; argatroban vs rhAT,more effective in preventing cast formation than rhAT
same,increase in plasma NOx levels,[4],not a statistical difference
same,animals with P. aeruginosa detected in arterial blood culture,P. aeruginosa,0%
same,Platelets,"[5]; 24 hrs after injury, Mean ± SE",297 ± 78 ×10^3/μL
same,WBC,"[5]; 24 hrs after injury, Mean ± SE",2.08 ± 0.81 ×10^3/μl
same,decrease in leukocyte number 24 h after the injury,"[5]; in words, Table 1",did not affect
same,decrease in platelet count after the injury,"[5]; in words, Table 1",slightly prevented

# — patent publication US20050169908A1, “Use of aerosolized antithrombin to treat acute lung injury” (priority 2004, published 2005)
